Target: T1, GABA A receptor α5β3γ2 (Homo sapiens, UniProt P18507+P31644)
T1 construct: expressed in transfected cells; host or cells: HEK293 (transiently transfected; membranes)
Assay: [3H]flumazenil competition binding, membranes of HEK293 cells expressing human GABA A α5β3γ2
Conditions: human α5β3γ2 in HEK293 (transiently transfected); 0.5 nM [3H]flumazenil; 1 hour at 4° C.; means of two determinations; read-out: Ki[nM]hα5
Procedure: The affinity of compounds at GABA A receptor subtypes was measured by competition for [3H]flumazenil (85 Ci/mmol; Roche) binding to HEK293 cells expressing rat (stably transfected) or human (transiently transfected) receptors of composition α1β3γ2, α2β3γ2, α3β3γ2 and α5β3γ2.
Cell pellets were suspended in Krebs-tris buffer (4.8 mM KCl, 1.2 mM CaCl2, 1.2 mM MgCl2, 120 mM NaCl, 15 mM Tris; pH 7.5; binding assay buffer), homogenized by polytron for ca. 20 sec on ice and centrifuged for 60 min at 4° C. (50000 g; Sorvall, rotor: SM24=20000 rpm). The cell pellets were resuspended in Krebs-tris buffer and homogenized by polytron for ca. 15 sec on ice. Protein was measured (Bradford method, Bio-Rad) and aliquots of 1 mL were prepared and stored at −80° C.
Radioligand binding assays were carried out in a volume of […] (96-well plates) which contained […] of cell membranes, [3H]flumazenil at a concentration of 1 nM for α1, α2, α3 subunits and 0.5 nM for α5 subunits and the test compound in the range of […]. Nonspecific binding was defined by 10^−5 M diazepam and typically represented less than 5% of the total binding. Assays were incubated to equilibrium for 1 hour at 4° C. and harvested onto GF/C uni-filters (Packard) by filtration using a Packard harvester and washing with ice-cold wash buffer 50 mM Tris; pH 7.5). After drying, filter-retained radioactivity was detected by liquid scintillation counting. Ki values were calculated using Excel-Fit (Microsoft) and are the means of two determinations.

Compound | Ki [nM]
Brc1ccc2nc(-c3c(-c4ccccc4)noc3C3CC3)cn2c1 [Example 69, 6-Bromo-2-(5-cyclopropyl-3-phenyl-isoxazol-4-yl)-imidazo[1,2-a]pyridine] | 7.13
Cc1onc(-c2ccccc2)c1-c1cn2cc(NC(=O)C3CCCC3)ccc2n1 [Example 59, Cyclopentanecarboxylic acid [2-(5-methyl-3-phenyl-isoxazol-4-yl)-imidazo[1,2-a]pyridin-6-yl]-amide] | 54.7
Cc1onc(-c2ccccc2)c1-c1cn2cc(N3CCCC3=O)ccc2n1 [Example 63, 1-[2-(5-Methyl-3-phenyl-isoxazol-4-yl)-imidazo[1,2-a]pyridin-6-yl]-pyrrolidin-2-one] | 48.7
Cc1onc(-c2ccccc2)c1-c1cn2cc(C(=O)NC3CCCC3)ccc2n1 [Example 35, 2-(5-Methyl-3-phenyl-isoxazol-4-yl)-imidazo[1,2-a]pyridine-6-carboxylic acid cyclopentylamide] | 15.8
Cc1onc(-c2ccccc2)c1-c1cn2ccc(NC(=O)C3CCC3)cc2n1 [Example 49, Cyclobutanecarboxylic acid [2-(5-methyl-3-phenyl-isoxazol-4-yl)-imidazo[1,2-a]pyridin-7-yl]-amide] | 80.5
Cc1onc(-c2ccccc2)c1-c1cn2cc(NC(=O)C3CC3)ccc2n1 [Example 57, Cyclopropanecarboxylic acid [2-(5-methyl-3-phenyl-isoxazol-4-yl)-imidazo[1,2-a]pyridin-6-yl]-amide] | 20.8
Cc1onc(-c2ccccc2)c1-c1cn2ccc(C(=O)NCCN3CCOCC3)cc2n1 [Example 18, 2-(5-Methyl-3-phenyl-isoxazol-4-yl)-imidazo[1,2-a]pyridine-7-carboxylic acid (2-morpholin-4-yl-ethyl)-amide] | 159
Cc1onc(-c2ccccc2)c1-c1cn2cc(C(=O)NC3CCOCC3)ccc2n1 [Example 37, 2-(5-Methyl-3-phenyl-isoxazol-4-yl)-imidazo[1,2-a]pyridine-6-carboxylic acid (tetrahydro-pyran-4-yl)-amide] | 6.8
Cc1onc(-c2ccccc2)c1-c1cn2ccc(C(=O)NCc3ccco3)cc2n1 [Example 23, 2-(5-Methyl-3-phenyl-isoxazol-4-yl)-imidazo[1,2-a]pyridine-7-carboxylic acid (furan-2-ylmethyl)-amide] | 183
Cc1onc(-c2ccccc2)c1-c1cn2ccc(NC(=O)c3cccnc3)cc2n1 [Example 51, N-[2-(5-Methyl-3-phenyl-isoxazol-4-yl)-imidazo[1,2-a]pyridin-7-yl]-nicotinamide] | 76.2
Cc1onc(-c2ccccc2)c1-c1cn2cc(NC(=O)CC3CC3)ccc2n1 [Example 55, 2-Cyclopropyl-N-[2-(5-methyl-3-phenyl-isoxazol-4-yl)-imidazo[1,2-a]pyridin-6-yl]-acetamide] | 38.4
2-(5-Methyl-3-phenyl-isoxazol-4-yl)-imidazo[1,2-a]pyridine-6-carboxylic acid (3-morpholin-4-yl-propyl)-amide [Example 39] | 190
Cc1onc(-c2ccccc2)c1-c1cn2ccc(C(=O)NC3CCCC3)cc2n1 [Example 15, 2-(5-Methyl-3-phenyl-isoxazol-4-yl)-imidazo[1,2-a]pyridine-7-carboxylic acid cyclopentylamide] | 200
C#Cc1ccn2cc(-c3c(-c4ccccc4)noc3C)nc2c1 [Example 45, 7-Ethynyl-2-(5-methyl-3-phenyl-isoxazol-4-yl)-imidazo[1,2-a]pyridine] | 189
CCOC(=O)c1ccc2nc(-c3c(-c4ccccc4)noc3C)cn2c1 [Example 30, 2-(5-Methyl-3-phenyl-isoxazol-4-yl)-imidazo[1,2-a]pyridine-6-carboxylic acid ethyl ester] | 154
Cc1onc(-c2ccccc2)c1-c1cn2cc(C(=O)NC3CC3)ccc2n1 [Example 33, 2-(5-Methyl-3-phenyl-isoxazol-4-yl)-imidazo[1,2-a]pyridine-6-carboxylic acid cyclopropylamide] | 23.6
Cc1onc(-c2ccccc2)c1-c1cn2ccc(C(=O)NC3CC3)cc2n1 [Example 13, 2-(5-Methyl-3-phenyl-isoxazol-4-yl)-imidazo[1,2-a]pyridine-7-carboxylic acid cyclopropylamide] | 87.4
COC(=O)c1ccc2nc(-c3c(-c4ccccc4)noc3C)cn2c1 [Example 29, 2-(5-Methyl-3-phenyl-isoxazol-4-yl)-imidazo[1,2-a]pyridine-6-carboxylic acid methyl ester] | 117
Cc1onc(-c2ccccc2)c1-c1cn2cc(C(=O)NCCO)ccc2n1 [Example 36, 2-(5-Methyl-3-phenyl-isoxazol-4-yl)-imidazo[1,2-a]pyridine-6-carboxylic acid (2-hydroxy-ethyl)-amide] | 59.8
Cc1onc(-c2ccccc2)c1-c1cn2ccc(C(=O)NC3CCOCC3)cc2n1 [Example 17, 2-(5-Methyl-3-phenyl-isoxazol-4-yl)-imidazo[1,2-a]pyridine-7-carboxylic acid (tetrahydro-pyran-4-yl)-amide] | 96
Cc1onc(-c2ccccc2)c1-c1cn2cc(N3CCC3=O)ccc2n1 [Example 62, 1-[2-(5-Methyl-3-phenyl-isoxazol-4-yl)-imidazo[1,2-a]pyridin-6-yl]-azetidin-2-one] | 27
Cc1onc(-c2ccccc2)c1-c1cn2ccc(C(=O)NCC3CC3)cc2n1 [Example 11, 2-(5-Methyl-3-phenyl-isoxazol-4-yl)-imidazo[1,2-a]pyridine-7-carboxylic acid cyclopropylmethyl-amide] | 178
Cc1onc(-c2ccccc2)c1-c1cn2cc(C(=O)NCCN3CCOCC3)ccc2n1 [Example 38, 2-(5-Methyl-3-phenyl-isoxazol-4-yl)-imidazo[1,2-a]pyridine-6-carboxylic acid (2-morpholin-4-yl-ethyl)-amide] | 174
Cc1onc(-c2ccccc2)c1-c1cn2c(-n3ccnc3)cccc2n1 [Example 67, 5-Imidazol-1-yl-2-(5-methyl-3-phenyl-isoxazol-4-yl)-imidazo[1,2-a]pyridine] | 13.4

The next lines start with the values.

Ki [nM] | Compound
90.3 | Cc1onc(-c2ccccc2)c1-c1cn2ccc(N)cc2n1 [Example 46, 2-(5-Methyl-3-phenyl-isoxazol-4-yl)-imidazo[1,2-a]pyridin-7-ylamine]
23 | Cc1onc(-c2ccccc2)c1-c1cn2cccc(OCc3ccccc3)c2n1 [Example 6, 8-Benzyloxy-2-(5-methyl-3-phenyl-isoxazol-4-yl)-imidazo[1,2-a]pyridine]
33.1 | Cc1ccc2nc(-c3c(-c4ccccc4)noc3C)cn2c1 [Example 24, 6-Methyl-2-(5-methyl-3-phenyl-isoxazol-4-yl)-imidazo[1,2-a]pyridine]
36.9 | Cc1onc(-c2ccccc2)c1-c1cn2cc(C(=O)NCc3ccco3)ccc2n1 [Example 43, 2-(5-Methyl-3-phenyl-isoxazol-4-yl)-imidazo[1,2-a]pyridine-6-carboxylic acid (furan-2-ylmethyl)-amide]
126 | Cc1onc(-c2ccccc2)c1-c1cn2cccc(Cl)c2n1 [Example 3, 8-Chloro-2-(5-methyl-3-phenyl-isoxazol-4-yl)-imidazo[1,2-a]pyridine]
97 | Cc1onc(-c2ccccc2)c1-c1cn2ccc(C(=O)NCc3cccnc3)cc2n1 [Example 21, 2-(5-Methyl-3-phenyl-isoxazol-4-yl)-imidazo[1,2-a]pyridine-7-carboxylic acid (pyridin-3-ylmethyl)-amide]
101 | CCc1ccn2cc(-c3c(-c4ccccc4)noc3C)nc2c1 [Example 9, 7-Ethyl-2-(5-methyl-3-phenyl-isoxazol-4-yl)-imidazo[1,2-a]pyridine]
154 | Cc1onc(-c2ccccc2)c1-c1cn2cc(F)ccc2n1 [Example 25, 6-Fluoro-2-(5-methyl-3-phenyl-isoxazol-4-yl)-imidazo[1,2-a]pyridine]
30.7 | Cc1onc(-c2ccccc2)c1-c1cn2cc(NC(=O)c3ccccc3)ccc2n1 [Example 60, N-[2-(5-Methyl-3-phenyl-isoxazol-4-yl)-imidazo[1,2-a]pyridin-6-yl]-benzamide]
164 | C#Cc1ccc2nc(-c3c(-c4ccccc4)noc3C)cn2c1 [Example 53, 6-Ethynyl-2-(5-methyl-3-phenyl-isoxazol-4-yl)-imidazo[1,2-a]pyridine]
199 | Cc1onc(-c2ccccc2)c1-c1cn2ccc(C(=O)NCc3ccncc3)cc2n1 [Example 22, 2-(5-Methyl-3-phenyl-isoxazol-4-yl)-imidazo[1,2-a]pyridine-7-carboxylic acid (pyridin-4-ylmethyl)-amide]
146 | Cc1onc(-c2ccccc2)c1-c1cn2cccc(Br)c2n1 [Example 4, 8-Bromo-2-(5-methyl-3-phenyl-isoxazol-4-yl)-imidazo[1,2-a]pyridine]
9.4 | Cc1onc(-c2ccccc2)c1-c1cn2cc(NC(=O)c3cccnc3)ccc2n1 [Example 61, N-[2-(5-Methyl-3-phenyl-isoxazol-4-yl)-imidazo[1,2-a]pyridin-6-yl]-nicotinamide]

Source: patent US7585874B2, “Aryl-isoxazol-4-yl-imidazo[1,2-a]pyridine derivatives” (Hoffmann-La Roche Inc., priority 2006, dated 2009)
